{"source": "BindingDB's records for doi:10.1016/s0960-894x(00)00664-8", "about": "(Kyoto University, 2001)", "assay": "Effective concentration for antagonistic activity by inhibition of T-tropic strain of HIV-1 through its specific binding to a chemokine receptor", "note": "Where a SMILES comes first, the peptide text is derived from it. Bridges are numbered along the chain shown (N, C = ends). [ ]: non-standard residue; d: D form. Gly(2-naphthyl) = N[C@H](C(=O)O)c1ccc2ccccc2c1; Cit = NC(=O)NCCC[C@H](N)C(=O)O"}
{"compound": "NCCCC[C@@H]1NC(=O)[C@H](CCCN=C(N)N)NC(=O)[C@H](Cc2ccc(O)cc2)NC(=O)[C@@H](NC(=O)[C@@H](NC(=O)[C@H](CCCN=C(N)N)NC(=O)[C@@H](N)CCCN=C(N)N)c2ccc3ccccc3c2)CSSC[C@@H](C(=O)N[C@@H](CCCN=C(N)N)C(=O)O)NC(=O)[C@H](CCCNC(N)=O)NC(=O)[C@H](CCCN=C(N)N)NC(=O)[C@H](Cc2ccc(O)cc2)NC(=O)[C@@H]2CCCN2C(=O)[C@@H](CCCCN)NC1=O", "note": "[Compound T140] (H-RR[Gly(2-naphthyl)]CYRK[dK]PYR[Cit]CR-OH; disulfide 4-13)", "values": [{"measurement": "EC50", "value": 0.18, "unit": "nM"}]}
